Measured values taken from the NIST ThermoML archive (doi:10.1021/je700428f).
± gives the expanded uncertainty stated by the source.

Assay: xn = mol fraction of the nth substance listed
Settings: 101 kPa, Liquid; for viscosity: Capillary tube (Ostwald / Ubbelohde) method

CCCCCCCCC [nonane] + COC(C)(C)C
Settings	mass density [kg/m3]	viscosity [mPa·s]
308.15 K, x2 = 0	706.011 ± 0.61	–
308.15 K, x2 = 0.1085	706.97 ± 0.61	–
308.15 K, x2 = 0.1722	707.6 ± 0.6	–
308.15 K, x2 = 0.3037	709.03 ± 0.6	–
308.15 K, x2 = 0.4011	710.36 ± 0.59	–
308.15 K, x2 = 0.5008	711.93 ± 0.59	–
308.15 K, x2 = 0.6005	713.77 ± 0.58	–
308.15 K, x2 = 0.6992	715.84 ± 0.58	–
308.15 K, x2 = 0.6998	–	0.386 ± 0.009
308.15 K, x2 = 0.7975	–	0.357 ± 0.008
308.15 K, x2 = 0.8005	718.35 ± 0.58	–
308.15 K, x2 = 0.8925	721.04 ± 0.58	–
313.15 K, x2 = 0	702.076 ± 0.62	0.555 ± 0.009
313.15 K, x2 = 0.1006	–	0.529 ± 0.009
313.15 K, x2 = 0.1085	702.96 ± 0.61	–
313.15 K, x2 = 0.1722	703.52 ± 0.61	–
313.15 K, x2 = 0.2026	–	0.498 ± 0.009
313.15 K, x2 = 0.2995	–	0.472 ± 0.009
313.15 K, x2 = 0.3037	704.82 ± 0.6	–
313.15 K, x2 = 0.4011	706.05 ± 0.6	–
313.15 K, x2 = 0.4045	–	0.446 ± 0.009
313.15 K, x2 = 0.5003	–	0.421 ± 0.009
313.15 K, x2 = 0.5008	707.49 ± 0.59	–
313.15 K, x2 = 0.6005	709.18 ± 0.59	–
313.15 K, x2 = 0.6035	–	0.391 ± 0.009
313.15 K, x2 = 0.6992	711.09 ± 0.59	–
313.15 K, x2 = 0.6998	–	0.367 ± 0.008
313.15 K, x2 = 0.8005	713.41 ± 0.58	–
313.15 K, x2 = 0.8925	715.91 ± 0.58	–
318.15 K, x2 = 0	698.124 ± 0.63	0.522 ± 0.009
318.15 K, x2 = 0.1006	–	0.498 ± 0.009
318.15 K, x2 = 0.1085	698.89 ± 0.62	–
318.15 K, x2 = 0.1722	699.42 ± 0.62	–
318.15 K, x2 = 0.2026	–	0.471 ± 0.009
318.15 K, x2 = 0.2995	–	0.446 ± 0.009
318.15 K, x2 = 0.3037	700.6 ± 0.61	–
318.15 K, x2 = 0.4011	701.71 ± 0.6	–
318.15 K, x2 = 0.4045	–	0.422 ± 0.009
318.15 K, x2 = 0.5003	–	0.401 ± 0.009
318.15 K, x2 = 0.5008	703.01 ± 0.6	–
318.15 K, x2 = 0.6005	704.56 ± 0.6	–
318.15 K, x2 = 0.6035	–	0.372 ± 0.008
318.15 K, x2 = 0.6992	706.3 ± 0.59	–
318.15 K, x2 = 0.6998	–	0.348 ± 0.008
318.15 K, x2 = 0.8005	708.45 ± 0.59	–
318.15 K, x2 = 0.8925	710.72 ± 0.59	–
323.15 K, x2 = 0	694.151 ± 0.63	0.493 ± 0.009
323.15 K, x2 = 0.1006	–	0.47 ± 0.009
323.15 K, x2 = 0.1085	694.83 ± 0.63	–
323.15 K, x2 = 0.1722	695.3 ± 0.62	–
323.15 K, x2 = 0.2026	–	0.446 ± 0.009
323.15 K, x2 = 0.2995	–	0.423 ± 0.009
323.15 K, x2 = 0.3037	696.34 ± 0.62	–
323.15 K, x2 = 0.4011	697.34 ± 0.61	–
323.15 K, x2 = 0.4045	–	0.402 ± 0.009
323.15 K, x2 = 0.5003	–	0.382 ± 0.009
323.15 K, x2 = 0.5008	698.51 ± 0.61	–
323.15 K, x2 = 0.6005	699.89 ± 0.6	–
323.15 K, x2 = 0.6035	–	0.354 ± 0.008
323.15 K, x2 = 0.6992	701.46 ± 0.6	–
323.15 K, x2 = 0.8005	703.35 ± 0.6	–
323.15 K, x2 = 0.8925	705.48 ± 0.59	–
328.15 K, x2 = 0	690.165 ± 0.64	0.466 ± 0.009
328.15 K, x2 = 0.1006	–	0.445 ± 0.009
328.15 K, x2 = 0.1085	690.74 ± 0.63	–
328.15 K, x2 = 0.1722	691.16 ± 0.63	–
328.15 K, x2 = 0.2026	–	0.424 ± 0.009
328.15 K, x2 = 0.2995	–	0.402 ± 0.009
328.15 K, x2 = 0.3037	692.06 ± 0.62	–
328.15 K, x2 = 0.4011	692.94 ± 0.62	–
328.15 K, x2 = 0.4045	–	0.383 ± 0.008
328.15 K, x2 = 0.5003	–	0.364 ± 0.008
328.15 K, x2 = 0.5008	693.97 ± 0.61	–
328.15 K, x2 = 0.6005	695.19 ± 0.61	–
328.15 K, x2 = 0.6992	696.59 ± 0.61	–
328.15 K, x2 = 0.8005	698.27 ± 0.6	–
333.15 K, x2 = 0	686.154 ± 0.64	0.442 ± 0.009
333.15 K, x2 = 0.1006	–	0.423 ± 0.009
333.15 K, x2 = 0.1085	686.64 ± 0.64	–
333.15 K, x2 = 0.1722	686.99 ± 0.63	–
333.15 K, x2 = 0.2026	–	0.404 ± 0.009
333.15 K, x2 = 0.2995	–	0.383 ± 0.009
333.15 K, x2 = 0.3037	687.76 ± 0.63	–
333.15 K, x2 = 0.4011	688.5 ± 0.62	–
333.15 K, x2 = 0.4045	–	0.365 ± 0.008
333.15 K, x2 = 0.5003	–	0.347 ± 0.008
333.15 K, x2 = 0.5008	689.39 ± 0.62	–
333.15 K, x2 = 0.6005	690.45 ± 0.62	–
333.15 K, x2 = 0.6992	691.66 ± 0.61	–
333.15 K, x2 = 0.8005	693.14 ± 0.61	–
338.15 K, x2 = 0	682.116 ± 0.65	0.42 ± 0.009
338.15 K, x2 = 0.1006	–	0.402 ± 0.009
338.15 K, x2 = 0.1085	682.52 ± 0.64	–
338.15 K, x2 = 0.1722	682.79 ± 0.64	–
338.15 K, x2 = 0.2026	–	0.386 ± 0.009
338.15 K, x2 = 0.2995	–	0.366 ± 0.008
338.15 K, x2 = 0.3037	683.42 ± 0.63	–
338.15 K, x2 = 0.4011	684.02 ± 0.63	–
338.15 K, x2 = 0.4045	–	0.348 ± 0.008
338.15 K, x2 = 0.5008	684.76 ± 0.63	–
338.15 K, x2 = 0.6005	685.66 ± 0.62	–
338.15 K, x2 = 0.6992	686.68 ± 0.62	–
338.15 K, x2 = 0.8005	687.95 ± 0.62	–
343.15 K, x2 = 0	678.06 ± 0.66	0.399 ± 0.009
343.15 K, x2 = 0.1006	–	0.383 ± 0.009
343.15 K, x2 = 0.1085	678.37 ± 0.65	–
343.15 K, x2 = 0.1722	678.57 ± 0.65	–
343.15 K, x2 = 0.2026	–	0.368 ± 0.008
343.15 K, x2 = 0.2995	–	0.351 ± 0.008
343.15 K, x2 = 0.3037	679.05 ± 0.64	–
343.15 K, x2 = 0.4011	679.52 ± 0.64	–
343.15 K, x2 = 0.5008	680.11 ± 0.63	–
343.15 K, x2 = 0.6005	680.83 ± 0.63	–
348.15 K, x2 = 0	673.979 ± 0.66	0.38 ± 0.008
348.15 K, x2 = 0.1006	–	0.366 ± 0.008
348.15 K, x2 = 0.1085	674.19 ± 0.66	–
348.15 K, x2 = 0.1722	674.31 ± 0.65	–
348.15 K, x2 = 0.2026	–	0.352 ± 0.008
348.15 K, x2 = 0.3037	674.64 ± 0.65	–
348.15 K, x2 = 0.4011	674.98 ± 0.64	–
353.15 K, x2 = 0	669.872 ± 0.67	0.362 ± 0.008
353.15 K, x2 = 0.1006	–	0.35 ± 0.008
353.15 K, x2 = 0.1085	669.95 ± 0.66	–
353.15 K, x2 = 0.1722	670.02 ± 0.66	–
353.15 K, x2 = 0.2026	–	0.338 ± 0.008
353.15 K, x2 = 0.3037	670.19 ± 0.66	–
353.15 K, x2 = 0.4011	670.38 ± 0.65	–
358.15 K, x2 = 0	665.73 ± 0.68	0.346 ± 0.008
358.15 K, x2 = 0.1006	–	0.335 ± 0.008
358.15 K, x2 = 0.1085	665.71 ± 0.67	–
358.15 K, x2 = 0.1722	665.7 ± 0.67	–
358.15 K, x2 = 0.3037	665.7 ± 0.66	–
358.15 K, x2 = 0.4011	665.75 ± 0.66	–
363.15 K, x2 = 0	661.557 ± 0.68	–
363.16 K, x2 = 0.1085	661.43 ± 0.68	–
363.16 K, x2 = 0.1722	661.33 ± 0.67	–
363.16 K, x2 = 0.3037	661.17 ± 0.67	–
